# Test results taken from publication PMC11873239, “A covalent chemical probe for Chikungunya nsP2 cysteine protease with antialphaviral activity and proteome-wide selectivity” (Scientific Reports, 2025).
# Assays:
# Format in all cases: binding
# [1] = target: HEK293 cell lysate proteins (Homo sapiens, UniProt A8K2U0)
# [2] = target: HEK293 cell lysate proteins (Homo sapiens, UniProt O75342)
# [3] = target: HEK293 cell lysate proteins (Homo sapiens, UniProt P02788)
# [4] = target: HEK293 cell lysate proteins (Homo sapiens, UniProt P04264)
# [5] = target: HEK293 cell lysate proteins (Homo sapiens, UniProt P05089)
# [6] = target: HEK293 cell lysate proteins (Homo sapiens, UniProt P05109)
# HEK293 cell lysate proteins (Homo sapiens, UniProt P05109), sequence (P05109 whole entry): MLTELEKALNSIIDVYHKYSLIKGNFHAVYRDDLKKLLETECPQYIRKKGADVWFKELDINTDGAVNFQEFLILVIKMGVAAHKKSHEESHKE
# [7] = target: HEK293 cell lysate proteins (Homo sapiens, UniProt P06702)
# HEK293 cell lysate proteins (Homo sapiens, UniProt P06702), sequence (P06702 whole entry): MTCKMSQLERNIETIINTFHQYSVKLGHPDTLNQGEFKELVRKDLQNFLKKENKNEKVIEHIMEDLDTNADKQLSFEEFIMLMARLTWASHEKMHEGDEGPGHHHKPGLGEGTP
# [8] = target: HEK293 cell lysate proteins (Homo sapiens, UniProt P07339)
# [9] = target: HEK293 cell lysate proteins (Homo sapiens, UniProt P07355)
# [10] = target: HEK293 cell lysate proteins (Homo sapiens, UniProt P0DOX5)
# [11] = target: HEK293 cell lysate proteins (Homo sapiens, UniProt P11586)
# [12] = target: HEK293 cell lysate proteins (Homo sapiens, UniProt P14923)
# [13] = target: HEK293 cell lysate proteins (Homo sapiens, UniProt P22528)
# [14] = target: HEK293 cell lysate proteins (Homo sapiens, UniProt P22531)
# HEK293 cell lysate proteins (Homo sapiens, UniProt P22531), sequence (P22531 whole entry): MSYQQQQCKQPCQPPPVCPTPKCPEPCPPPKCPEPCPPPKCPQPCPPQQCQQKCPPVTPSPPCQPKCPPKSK
# [15] = target: HEK293 cell lysate proteins (Homo sapiens, UniProt P23490)
# HEK293 cell lysate proteins (Homo sapiens, UniProt P23490), sequence (P23490 whole entry): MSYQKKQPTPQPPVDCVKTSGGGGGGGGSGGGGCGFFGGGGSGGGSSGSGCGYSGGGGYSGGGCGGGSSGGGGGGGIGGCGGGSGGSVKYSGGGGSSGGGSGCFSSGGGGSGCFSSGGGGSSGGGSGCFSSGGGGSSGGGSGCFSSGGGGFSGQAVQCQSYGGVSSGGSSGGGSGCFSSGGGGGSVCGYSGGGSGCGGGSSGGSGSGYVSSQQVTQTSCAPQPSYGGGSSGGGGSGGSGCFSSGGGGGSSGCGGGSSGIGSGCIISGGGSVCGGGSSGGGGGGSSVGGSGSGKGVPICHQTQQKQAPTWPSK
# [16] = target: HEK293 cell lysate proteins (Homo sapiens, UniProt P25311)
# [17] = target: HEK293 cell lysate proteins (Homo sapiens, UniProt P26358)
# [18] = target: HEK293 cell lysate proteins (Homo sapiens, UniProt P27708)
# HEK293 cell lysate proteins (Homo sapiens, UniProt P27708), sequence (P27708 whole entry): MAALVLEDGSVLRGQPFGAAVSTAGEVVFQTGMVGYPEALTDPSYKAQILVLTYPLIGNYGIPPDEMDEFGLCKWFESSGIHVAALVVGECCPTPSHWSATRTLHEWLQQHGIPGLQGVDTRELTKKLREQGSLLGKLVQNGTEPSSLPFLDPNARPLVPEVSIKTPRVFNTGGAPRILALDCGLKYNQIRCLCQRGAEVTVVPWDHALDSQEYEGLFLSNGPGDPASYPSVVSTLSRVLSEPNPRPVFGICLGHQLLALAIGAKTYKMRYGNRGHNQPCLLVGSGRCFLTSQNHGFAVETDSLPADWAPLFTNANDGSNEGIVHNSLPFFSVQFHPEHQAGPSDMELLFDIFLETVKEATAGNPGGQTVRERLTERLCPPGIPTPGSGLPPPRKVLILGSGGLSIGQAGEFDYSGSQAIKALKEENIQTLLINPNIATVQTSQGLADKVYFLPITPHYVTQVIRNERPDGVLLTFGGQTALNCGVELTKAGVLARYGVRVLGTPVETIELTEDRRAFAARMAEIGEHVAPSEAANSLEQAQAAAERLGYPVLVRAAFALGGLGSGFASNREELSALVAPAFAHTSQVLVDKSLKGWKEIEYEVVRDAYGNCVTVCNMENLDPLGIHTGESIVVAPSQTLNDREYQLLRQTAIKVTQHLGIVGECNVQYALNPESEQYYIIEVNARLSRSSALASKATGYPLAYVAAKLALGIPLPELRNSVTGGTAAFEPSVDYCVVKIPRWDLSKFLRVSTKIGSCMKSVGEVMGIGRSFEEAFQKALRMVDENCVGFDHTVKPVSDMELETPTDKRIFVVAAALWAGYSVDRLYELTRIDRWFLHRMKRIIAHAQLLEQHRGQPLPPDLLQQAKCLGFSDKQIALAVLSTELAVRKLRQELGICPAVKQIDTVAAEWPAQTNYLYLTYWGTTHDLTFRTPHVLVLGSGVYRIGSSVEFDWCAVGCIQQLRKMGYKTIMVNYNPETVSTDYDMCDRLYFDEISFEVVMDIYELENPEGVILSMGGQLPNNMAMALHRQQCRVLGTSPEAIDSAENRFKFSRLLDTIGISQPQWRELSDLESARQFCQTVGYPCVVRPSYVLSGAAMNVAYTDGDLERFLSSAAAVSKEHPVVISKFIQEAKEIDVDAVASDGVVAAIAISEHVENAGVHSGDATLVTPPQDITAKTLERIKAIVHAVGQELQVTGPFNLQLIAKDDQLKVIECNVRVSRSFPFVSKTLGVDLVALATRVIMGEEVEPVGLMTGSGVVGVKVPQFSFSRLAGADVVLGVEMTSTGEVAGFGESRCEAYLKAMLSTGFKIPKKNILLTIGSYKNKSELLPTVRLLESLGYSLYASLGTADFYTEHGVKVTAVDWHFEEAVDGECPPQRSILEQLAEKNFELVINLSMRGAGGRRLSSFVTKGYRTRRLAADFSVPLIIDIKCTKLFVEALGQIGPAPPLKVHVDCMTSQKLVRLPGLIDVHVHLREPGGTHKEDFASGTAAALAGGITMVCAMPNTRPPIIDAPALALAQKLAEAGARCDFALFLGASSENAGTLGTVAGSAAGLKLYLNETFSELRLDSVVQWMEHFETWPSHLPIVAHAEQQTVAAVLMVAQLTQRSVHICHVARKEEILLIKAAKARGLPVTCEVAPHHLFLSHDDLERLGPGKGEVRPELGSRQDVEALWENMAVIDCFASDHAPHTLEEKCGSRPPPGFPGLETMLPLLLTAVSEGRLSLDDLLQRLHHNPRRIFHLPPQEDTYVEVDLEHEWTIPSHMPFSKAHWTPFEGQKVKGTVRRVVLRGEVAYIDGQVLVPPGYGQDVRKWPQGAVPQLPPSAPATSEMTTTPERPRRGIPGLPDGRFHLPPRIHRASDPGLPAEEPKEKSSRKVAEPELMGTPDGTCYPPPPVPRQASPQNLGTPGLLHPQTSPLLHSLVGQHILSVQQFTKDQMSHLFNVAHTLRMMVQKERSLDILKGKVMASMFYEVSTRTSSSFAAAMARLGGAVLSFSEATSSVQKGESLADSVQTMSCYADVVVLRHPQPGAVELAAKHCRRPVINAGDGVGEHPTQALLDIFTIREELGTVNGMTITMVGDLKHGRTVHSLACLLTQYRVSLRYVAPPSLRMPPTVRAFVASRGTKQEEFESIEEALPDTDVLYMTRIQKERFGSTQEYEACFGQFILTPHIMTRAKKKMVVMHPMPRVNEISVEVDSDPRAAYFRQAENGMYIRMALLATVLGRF
# [19] = target: HEK293 cell lysate proteins (Homo sapiens, UniProt P31025)
# [20] = target: HEK293 cell lysate proteins (Homo sapiens, UniProt P31944)
# HEK293 cell lysate proteins (Homo sapiens, UniProt P31944), sequence (P31944 6-242): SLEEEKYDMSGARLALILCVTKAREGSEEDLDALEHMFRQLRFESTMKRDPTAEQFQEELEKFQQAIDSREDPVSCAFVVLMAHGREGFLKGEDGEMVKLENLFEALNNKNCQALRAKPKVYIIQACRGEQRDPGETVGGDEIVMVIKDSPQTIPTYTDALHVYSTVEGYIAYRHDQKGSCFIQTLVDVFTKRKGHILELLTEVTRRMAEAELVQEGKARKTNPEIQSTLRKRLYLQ
# [21] = target: HEK293 cell lysate proteins (Homo sapiens, UniProt P41252)
# [22] = target: HEK293 cell lysate proteins (Homo sapiens, UniProt P42357)
# [23] = target: HEK293 cell lysate proteins (Homo sapiens, UniProt P61626)
# [24] = target: HEK293 cell lysate proteins (Homo sapiens, UniProt P84103)
# [25] = target: HEK293 cell lysate proteins (Homo sapiens, UniProt Q01469)
# [26] = target: HEK293 cell lysate proteins (Homo sapiens, UniProt Q02413)
# [27] = target: HEK293 cell lysate proteins (Homo sapiens, UniProt Q03164)
# [28] = target: HEK293 cell lysate proteins (Homo sapiens, UniProt Q12872)
# [29] = target: HEK293 cell lysate proteins (Homo sapiens, UniProt Q13428)
# [30] = target: HEK293 cell lysate proteins (Homo sapiens, UniProt Q13835)
# HEK293 cell lysate proteins (Homo sapiens, UniProt Q13835), sequence (Q13835 whole entry): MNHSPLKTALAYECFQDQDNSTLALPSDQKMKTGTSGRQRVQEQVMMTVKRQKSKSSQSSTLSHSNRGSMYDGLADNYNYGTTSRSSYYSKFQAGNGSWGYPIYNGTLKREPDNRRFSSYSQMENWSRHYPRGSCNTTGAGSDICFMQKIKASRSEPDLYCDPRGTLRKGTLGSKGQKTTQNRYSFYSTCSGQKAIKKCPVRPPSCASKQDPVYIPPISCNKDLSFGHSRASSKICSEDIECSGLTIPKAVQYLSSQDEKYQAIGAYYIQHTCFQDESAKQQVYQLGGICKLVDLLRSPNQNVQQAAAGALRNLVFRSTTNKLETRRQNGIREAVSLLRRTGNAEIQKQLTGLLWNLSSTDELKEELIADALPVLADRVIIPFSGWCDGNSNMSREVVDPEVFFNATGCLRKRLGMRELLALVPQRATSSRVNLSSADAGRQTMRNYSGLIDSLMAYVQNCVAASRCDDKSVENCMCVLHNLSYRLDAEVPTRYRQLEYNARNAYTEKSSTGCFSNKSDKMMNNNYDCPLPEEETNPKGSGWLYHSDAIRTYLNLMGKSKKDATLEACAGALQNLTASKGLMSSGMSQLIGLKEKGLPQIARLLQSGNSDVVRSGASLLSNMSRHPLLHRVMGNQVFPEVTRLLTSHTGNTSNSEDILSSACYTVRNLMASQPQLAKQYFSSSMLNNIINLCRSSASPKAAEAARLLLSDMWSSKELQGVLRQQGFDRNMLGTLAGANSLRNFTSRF
# [31] = target: HEK293 cell lysate proteins (Homo sapiens, UniProt Q13867)
# [32] = target: HEK293 cell lysate proteins (Homo sapiens, UniProt Q14684)
# HEK293 cell lysate proteins (Homo sapiens, UniProt Q14684), sequence (Q14684 whole entry): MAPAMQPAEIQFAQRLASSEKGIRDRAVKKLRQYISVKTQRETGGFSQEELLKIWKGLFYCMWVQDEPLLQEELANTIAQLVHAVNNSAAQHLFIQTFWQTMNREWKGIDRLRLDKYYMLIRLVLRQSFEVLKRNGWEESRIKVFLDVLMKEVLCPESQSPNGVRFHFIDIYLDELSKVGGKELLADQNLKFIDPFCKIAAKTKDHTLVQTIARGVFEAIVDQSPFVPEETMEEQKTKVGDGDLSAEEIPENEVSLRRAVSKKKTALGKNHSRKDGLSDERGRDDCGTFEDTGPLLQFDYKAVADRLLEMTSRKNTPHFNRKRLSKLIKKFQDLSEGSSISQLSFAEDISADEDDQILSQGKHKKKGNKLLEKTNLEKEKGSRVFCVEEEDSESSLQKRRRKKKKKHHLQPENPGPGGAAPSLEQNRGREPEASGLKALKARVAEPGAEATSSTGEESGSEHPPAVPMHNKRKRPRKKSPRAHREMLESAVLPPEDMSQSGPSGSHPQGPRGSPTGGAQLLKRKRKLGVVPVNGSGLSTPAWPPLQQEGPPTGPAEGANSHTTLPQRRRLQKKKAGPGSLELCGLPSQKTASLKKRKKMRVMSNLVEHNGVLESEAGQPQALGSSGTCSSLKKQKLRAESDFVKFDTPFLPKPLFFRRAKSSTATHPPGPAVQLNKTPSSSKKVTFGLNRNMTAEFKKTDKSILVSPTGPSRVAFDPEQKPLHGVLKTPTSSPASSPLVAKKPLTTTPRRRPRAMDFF
# [33] = target: HEK293 cell lysate proteins (Homo sapiens, UniProt Q15424)
# [34] = target: HEK293 cell lysate proteins (Homo sapiens, UniProt Q15517)
# [35] = target: HEK293 cell lysate proteins (Homo sapiens, UniProt Q15648)
# [36] = target: HEK293 cell lysate proteins (Homo sapiens, UniProt Q3KQU3)
# [37] = target: HEK293 cell lysate proteins (Homo sapiens, UniProt Q52LG2)
# [38] = target: HEK293 cell lysate proteins (Homo sapiens, UniProt Q5T749)
# [39] = target: HEK293 cell lysate proteins (Homo sapiens, UniProt Q8N1N4)
# [40] = target: HEK293 cell lysate proteins (Homo sapiens, UniProt Q96P63)
# [41] = target: HEK293 cell lysate proteins (Homo sapiens, UniProt Q96QA5)
# HEK293 cell lysate proteins (Homo sapiens, UniProt Q96QA5), sequence (Q96QA5 whole entry): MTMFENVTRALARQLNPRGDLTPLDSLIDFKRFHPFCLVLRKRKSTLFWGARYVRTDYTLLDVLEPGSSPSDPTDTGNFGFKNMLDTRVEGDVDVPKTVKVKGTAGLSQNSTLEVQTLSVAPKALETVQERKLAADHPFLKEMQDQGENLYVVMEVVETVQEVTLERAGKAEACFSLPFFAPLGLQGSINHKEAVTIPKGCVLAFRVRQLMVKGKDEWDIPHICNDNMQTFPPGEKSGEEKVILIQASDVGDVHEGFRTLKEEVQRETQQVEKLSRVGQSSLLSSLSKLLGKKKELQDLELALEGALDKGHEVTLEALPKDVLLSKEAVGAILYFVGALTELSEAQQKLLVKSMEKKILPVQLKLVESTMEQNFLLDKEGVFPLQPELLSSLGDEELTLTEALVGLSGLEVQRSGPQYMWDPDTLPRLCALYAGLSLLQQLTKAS
# [42] = target: HEK293 cell lysate proteins (Homo sapiens, UniProt Q9HCY8)
smiles,measurement,setting,value
"C#CCOc1ccccc1-c1cc(C(=O)NC/C=C/S(C)(=O)=O)on1 [VS, (E)-N-(3-(methylsulfonyl)allyl)−3-(2-(prop-2-yn-1-yloxy)phenyl)isoxazole-5-carboxamide]",Log2 fold change,[1],1.10
same,Log2 fold change,[2],2.14
same,Log2 fold change,[3],1.10
same,Log2 fold change,[4],1.49
same,Log2 fold change,[5],1.79
same,Log2 fold change,[6],1.58
same,Log2 fold change,[7],1.63
same,Log2 fold change,[8],1.67
same,Log2 fold change,[9],1.52
same,Log2 fold change,[10],1.84
same,Log2 fold change,[11],-1.66
same,Log2 fold change,[12],1.97
same,Log2 fold change,[13],2.72
same,Log2 fold change,[14],2.37
same,Log2 fold change,[15],2.79
same,Log2 fold change,[16],1.43
same,Log2 fold change,[17],1.64
same,Log2 fold change,[18],3.73
same,Log2 fold change,[19],1.54
same,Log2 fold change,[20],1.29
same,Log2 fold change,[21],1.48
same,Log2 fold change,[22],1.12
same,Log2 fold change,[23],1.36
same,Log2 fold change,[24],1.43
same,Log2 fold change,[25],2.38
same,Log2 fold change,[26],1.36
same,Log2 fold change,[27],-1.44
same,Log2 fold change,[28],-1.75
same,Log2 fold change,[29],1.02
same,Log2 fold change,[30],3.81
same,Log2 fold change,[31],1.56
same,Log2 fold change,[32],-2.16
same,Log2 fold change,[33],1.46
same,Log2 fold change,[34],1.22
same,Log2 fold change,[35],-1.21
same,Log2 fold change,[36],-2.07
same,Log2 fold change,[37],3.14
same,Log2 fold change,[38],2.53
same,Log2 fold change,[39],1.62
same,Log2 fold change,[40],1.71
same,Log2 fold change,[41],1.51
same,Log2 fold change,[42],1.98
